Consider five compounds from ChEMBL document CHEMBL1687822, “Inhibition of bacterial multidrug resistance by celecoxib, a cyclooxygenase-2 inhibitor” (2011).

Some results are limits rather than exact numbers.

Assay [1] concerns Staphylococcus aureus. As to the kind of experiment: Antibacterial activity against methicillin-resistant Staphylococcus aureus ATCC 335913. Format: functional.
For assay [2], the system named is Mycolicibacterium smegmatis. As to the kind of experiment: Antibacterial activity against Mycobacterium smegmatis MC2 155 ATCC. It is filed as functional.
Assay [3] has as its system Staphylococcus aureus. In words: Antibacterial activity against Staphylococcus aureus ATCC 29213. It is filed as functional.
Assay [4] concerns Mycolicibacterium smegmatis MC2 155. As to the kind of experiment: Inhibition of MDR1-mediated Mycobacterium smegmatis MC2 155 ATCC assessed as fractional inhibitory concentration index after 24 to 48 hrs in presence of kanamycin.
In assay [5] the test system is Staphylococcus aureus. In words: Inhibition of MDR1 in methicillin-resistant Staphylococcus aureus ATCC 335913 assessed as increase in accumulation of ampicillin by EtBr efflux using flow cytometer. For orientation: A flow cytometer gives signals particle by particle.
The subject of assay [6] is Staphylococcus aureus. In words: Inhibition of MDR1 in methicillin-resistant Staphylococcus aureus ATCC 335913 assessed as increase in accumulation of ciprofloxacin by EtBr efflux using flow cytometer.
Assay [7] deals with Mycolicibacterium smegmatis MC2 155. In words: Inhibition of MDR1-mediated Mycobacterium smegmatis MC2 155 ATCC assessed as fractional inhibitory concentration index after 24 to 48 hrs in presence of ampicillin.
Assay [8] has the same test system. As to the kind of experiment: Inhibition of MDR1-mediated Mycobacterium smegmatis MC2 155 ATCC assessed as fractional inhibitory concentration index after 24 to 48 hrs in presence of chloramphenicol.
For assay [9], the system named is Staphylococcus aureus. As to the kind of experiment: Inhibition of MDR1-mediated […] in Staphylococcus aureus ATCC 29213 assessed as fractional inhibitory concentration index after 24 to 48 hrs in presence of kanamycin.
The test system of assay [10] is Staphylococcus aureus. In words: Inhibition of MDR1-mediated methicillin-resistant Staphylococcus aureus ATCC 335913 assessed as fractional inhibitory concentration index after 24 to 48 hrs in presence of ciprofloxacin.
Assay [11] has as its system Mycolicibacterium smegmatis MC2 155. As to the kind of experiment: Inhibition of MDR1 in Mycobacterium smegmatis ATCC MC2155 assessed as increase in accumulation of chloramphenicol by EtBr efflux using flow cytometer.
Assay [12] has as its system Staphylococcus aureus. In words: Inhibition of MDR1 in Staphylococcus aureus ATCC 29213 assessed as increase in accumulation of ampicillin by EtBr efflux using flow cytometer.
Assay [13] concerns Mycolicibacterium smegmatis MC2 155. As to the kind of experiment: Inhibition of MDR1 in Mycobacterium smegmatis ATCC MC2155 assessed as increase in accumulation of kanamycin by EtBr efflux using flow cytometer.
In assay [14] the test system is Staphylococcus aureus. As to the kind of experiment: Inhibition of MDR1 in Staphylococcus aureus ATCC 29213 assessed as increase in accumulation of ciprofloxacin by EtBr efflux using flow cytometer.
The test system of assay [15] is Staphylococcus aureus. In words: Inhibition of MDR1 in Staphylococcus aureus ATCC 29213 assessed as increase in accumulation of chloramphenicol by EtBr efflux using flow cytometer.
Assay [16] deals with Staphylococcus aureus. As to the kind of experiment: Inhibition of MDR1 in Staphylococcus aureus ATCC 29213 assessed as increase in accumulation of kanamycin by EtBr efflux using flow cytometer.
Assay [17] relates to Mycolicibacterium smegmatis MC2 155. As to the kind of experiment: Inhibition of MDR1 in Mycobacterium smegmatis ATCC MC2155 assessed as increase in accumulation of ampicillin by EtBr efflux using flow cytometer.
The test system of assay [18] is Staphylococcus aureus. In words: Inhibition of MDR1-mediated methicillin-resistant Staphylococcus aureus ATCC 335913 assessed as fractional inhibitory concentration index after 24 to 48 hrs in presence of chloramphenicol.
Assay [19] deals with Staphylococcus aureus. As to the kind of experiment: Inhibition of MDR1 in methicillin-resistant Staphylococcus aureus ATCC 335913 assessed as increase in accumulation of chloramphenicol by EtBr efflux using flow cytometer.
Assay [20] deals with Staphylococcus aureus. As to the kind of experiment: Inhibition of MDR1 in methicillin-resistant Staphylococcus aureus ATCC 335913 assessed as increase in accumulation of kanamycin by EtBr efflux using flow cytometer.
Assay [21] deals with Staphylococcus aureus. As to the kind of experiment: Inhibition of MDR1-mediated […] in Staphylococcus aureus ATCC 29213 assessed as fractional inhibitory concentration index after 24 to 48 hrs in presence of ampicillin.
The subject of assay [22] is Staphylococcus aureus. In words: Inhibition of MDR1-mediated […] in Staphylococcus aureus ATCC 29213 assessed as fractional inhibitory concentration index after 24 to 48 hrs in presence of chloramphenicol.
The test system of assay [23] is Staphylococcus aureus. In words: Inhibition of MDR1-mediated methicillin-resistant Staphylococcus aureus ATCC 335913 assessed as fractional inhibitory concentration index after 24 to 48 hrs in presence of kanamycin.
For assay [24], the system named is Mycolicibacterium smegmatis MC2 155. In words: Inhibition of MDR1 in Mycobacterium smegmatis ATCC MC2155 assessed as increase in accumulation of ciprofloxacin by EtBr efflux using flow cytometer.
In assay [25] the test system is Staphylococcus aureus. As to the kind of experiment: Inhibition of MDR1-mediated methicillin-resistant Staphylococcus aureus ATCC 335913 assessed as fractional inhibitory concentration index after 24 to 48 hrs in presence of ampicillin.
For assay [26], the system named is Staphylococcus aureus. As to the kind of experiment: Inhibition of MDR1-mediated […] in Staphylococcus aureus ATCC 29213 assessed as fractional inhibitory concentration index after 24 to 48 hrs in presence of ciprofloxacin.
In assay [27] the test system is Mycolicibacterium smegmatis MC2 155. In words: Inhibition of MDR1-mediated Mycobacterium smegmatis MC2 155 ATCC assessed as fractional inhibitory concentration index after 24 to 48 hrs in presence of ciprofloxacin.

`CC1(C)S[C@@H]2[C@H](NC(=O)[C@H](N)c3ccccc3)C(=O)N2[C@H]1C(=O)O` [AMPICILLIN]: the MIC (in general, the lowest concentration found to suppress growth) came out at 200 µg/mL with Staphylococcus aureus [1], 250 µg/mL in assay [2] and 5 µg/mL with Staphylococcus aureus [3].
`Cc1ccc(-c2cc(C(F)(F)F)nn2-c2ccc(S(N)(=O)=O)cc2)cc1` [CELECOXIB]: the fractional inhibitory concentration index (FICI) in assay [4] was determined as 0.312; in [7], 0.0665; in assay [8], 0.562; in the assay with Staphylococcus aureus [9], 0.531; in the assay on Staphylococcus aureus [10], 0.312; in the assay with Staphylococcus aureus [18], 0.312. Besides, the fractional inhibitory concentration index (FICI) with Staphylococcus aureus [21] was 0.281; in the assay with Staphylococcus aureus [22] it was 0.281; with Staphylococcus aureus [23], 0.312; in the assay on Staphylococcus aureus [25], 0.312; in the assay with Staphylococcus aureus [26] it was 0.281; in assay [27], 0.188. In addition, the inhibition result (with Staphylococcus aureus [5]; with Staphylococcus aureus [6]; in [11]; in the assay with Staphylococcus aureus [12]; in assay [13]; in the assay with Staphylococcus aureus [14]) was “Dose-dependent effect” throughout. Further, the inhibition entry (in the assay on Staphylococcus aureus [15]; in the assay with Staphylococcus aureus [16]; in [17]; in the assay on Staphylococcus aureus [19]; in the assay on Staphylococcus aureus [20]; in assay [24]) was “Dose-dependent effect” throughout. Also, the MIC (against Staphylococcus aureus [1]; in assay [2]; against Staphylococcus aureus [3]) was above 100 µM each time.
`O=C(N[C@H](CO)[C@H](O)c1ccc([N+](=O)[O-])cc1)C(Cl)Cl` [CHLORAMPHENICOL]: the figures for the MIC (against Staphylococcus aureus [1]; in assay [2]; in the assay on Staphylococcus aureus [3]) were 100 µg/mL, 10 µg/mL and 5 µg/mL, respectively.
For `O=C(O)c1cn(C2CC2)c2cc(N3CCNCC3)c(F)cc2c1=O` [CIPROFLOXACIN] the same measures were 0.25 µg/mL, 0.5 µg/mL and 0.25 µg/mL.
For `NC[C@H]1O[C@H](O[C@H]2[C@H](O)[C@@H](O[C@H]3O[C@H](CO)[C@@H](O)[C@H](N)[C@H]3O)[C@H](N)C[C@@H]2N)[C@H](O)[C@@H](O)[C@@H]1O` [KANAMYCIN] the same measures were 100 µg/mL, 0.5 µg/mL and 10 µg/mL.
